Test results as given in patent US20250262188A1, “Methods of Increasing the Plasma Drug Exposure of Anticancer Agents” (Scandion Oncology A/S, priority 2021, published 2025).

Key:
[1] = SN-38 PK profile and tolerability in metastatic colorectal cancer patients treated with SCO-101 and FOLFIRI (Example 2); format: in vivo, human
Procedure: Patients with metastatic colorectal cancer were included in a study and treated with a combination of SCO-101 and FOLFIRI (combination of irinotecan, 5-FU and leucovorin) in 14 day treatment cycles. Patients received varying doses of Irinotecan between 50% and 80% of the recommended dose of Irinotecan (180 mg/m^2) according to their individual tolerability, which is standard practise. On days 1, 2, 3, 4, 5 and 6 in each treatment cycle, patients received one fixed daily dose of 150 mg SCO-101 taken in the morning at least 30 minutes before ingestion of food. On day 5 to 7, patients received FOLFIRI as specified for Colorectal cancer combination regimen 2.
Blood plasma samples were analysed for concentrations of SCO-101, irinotecan and SN-38 using Liquid Chromatography with Tandem Mass Spectrometric Detection (LC-MS/MS) bioanalytical method calibrated and validated in the rant 300 to 90.000 ng/ml. The method and system, including validation were according to industry standard. Data were analysed using commercially available software such as Win-Non-Lin (available from Certara inc.)
A trial was setup to address the safety, tolerability, and efficacy of SCO-101 given orally for 6 days followed by FOLFIRI at varying doses from day 5 to 7, in a biweekly schedule, in patients with metastatic colorectal cancer who have formerly been treated with FOLFIRI and afterwards progressed. The first part of the study was a dose-finding study, where the impact of SCO-101 on the pharmacokinetics (PK) of SN-38 was studied.
12 patients from the dose-finding part of the study received 150 mg SCO-101 for 6 days and […] of the recommended dose of FOLFIRI. 6 of the patients had RAS wildtype tumors and these patients were subjected to further analysis.
Blood for pharmacokinetic analysis was sampled from the patients were taken at 1, 2, 4, 8, 24, 48, and 96 hours after treatment with FOLFIRI and SCO-101.

BCRP [2] = target: T1, BCRP (Homo sapiens, UniProt Q9UNQ0); test: 3H-SN-38 uptake in HT29 SN-38 resistant cell monolayers (Example 6); format: cell-based
T1 construct: endogenous in cells; host or cells: HT29 parental and HT29 SN38-resistant colorectal cancer cells
T1 sequence (Q9UNQ0 1-655): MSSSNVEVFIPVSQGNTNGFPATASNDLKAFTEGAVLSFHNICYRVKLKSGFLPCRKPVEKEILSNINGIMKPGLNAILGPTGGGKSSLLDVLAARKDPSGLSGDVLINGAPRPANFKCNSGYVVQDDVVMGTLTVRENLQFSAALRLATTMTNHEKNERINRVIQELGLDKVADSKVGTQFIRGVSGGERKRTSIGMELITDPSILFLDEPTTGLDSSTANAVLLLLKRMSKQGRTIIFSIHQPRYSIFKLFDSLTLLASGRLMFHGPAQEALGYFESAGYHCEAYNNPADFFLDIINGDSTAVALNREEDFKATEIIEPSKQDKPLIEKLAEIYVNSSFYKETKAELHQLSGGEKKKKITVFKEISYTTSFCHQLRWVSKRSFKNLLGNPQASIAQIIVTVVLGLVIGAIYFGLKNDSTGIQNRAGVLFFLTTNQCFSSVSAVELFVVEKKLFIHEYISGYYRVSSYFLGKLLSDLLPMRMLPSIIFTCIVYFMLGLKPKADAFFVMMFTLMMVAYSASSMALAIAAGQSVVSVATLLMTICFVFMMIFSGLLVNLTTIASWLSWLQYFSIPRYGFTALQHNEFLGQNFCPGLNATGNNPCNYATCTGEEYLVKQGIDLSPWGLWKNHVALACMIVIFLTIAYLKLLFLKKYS
Procedure: (§1) All treatments were investigated in three technical replicates (N=3). On the day of experimentation, the culture media was exchanged with 100 μL transport buffer (HBSS, 0.05% BSA, 10 mM HEPES, pH 7.4) and cells were incubated for 15 minutes at 37° C.
(§2) Subsequently, the blank transport buffer was exchanged with 50 μL transport buffer containing the different compounds (in 2x of the final concentration) to be tested and incubated for 15 minutes at 37° C. The uptake experiment was started by adding 50 μL of ^3H-SN38 at a concentration of 2 μCi/mL to all wells (the resulting concentration of ^3H-SN38 during the experiment was 1 μCi/mL). The uptake experiment was stopped after 15 minutes of incubation at 37° C. by removing the transport buffer from all wells.
(§3) The cell monolayers were subsequently washed twice by adding/removing ice-cold transport buffer twice and finally the cell monolayers were lysed by incubation in 100 μl of 0.1% TritonX-100 for 15 minutes at ambient temperature. Cell lysates were transferred to scintillation vials containing 2 mL of scintillation fluid (Ultima Gold, PerkinElmer). Each well was washed with 2×100 μL purified water (milliQ), which was also transferred to respective scintillation vials.

ABCG2 = target: T2, ABCG2 (Homo sapiens, UniProt Q9UNQ0); test: Flux assays (dye-flux, bi-directional flux, 3H-SN38 accumulation, vesicular uptake) in colon cancer cells (Example 4); format: cell-based; conditions: parental and SN38-resistant HT29 and LoVo cells
T2 construct: endogenous in cells; host or cells: HT29 and LoVo, parental and SN38-resistant
T2 sequence (Q9UNQ0 1-655): T1 sequence (Q9UNQ0 1-655)
Source text: Pairs of parental (sensitive) and SN38-resistant human colon cancer cell lines (HT29 and LoVo) were used. ABCG2 overexpression and effects of SCO-101 on ABCG2 was investigated by western blot, qPCR, dye-flux assays, bi-directional flux assays, 3H-SN38 accumulation assays and vesicular uptake assays. The effect of SCO-101 on SN38 re-sensitization was investigated by cell viability assays (MTT/PrestoBlue) and clonogenic assays.

BCRP [3] = target: T1, BCRP; test: 3H-SN-38 uptake in HT29 parental cell monolayers (Example 6); format: cell-based
Procedure: as §1, §2, §3

Uptake of SN-38 in the presence vs absence of SCO-101, all seeded cell densities (BCRP [2]; 25 μM SCO-101, HT29 SN-38 resistant): increased uptake | Uptake of SN-38 relative to blank HBSS transport buffer control (BCRP [2]; 25 μM test compound, HT29 SN-38 resistant, ANOVA α=0.05): significantly increased | EC50 (BCRP [2]; HT29 SN-38 res cell monolayers, read-out: Estimated EC50-value for increase in uptake of SN-38): 9.8 µM | Uptake of SN-38 with increasing concentrations of SCO-101 (BCRP [2]; SCO-101 100 to 0.5 μM, HT29 SN-38 resistant): concentration-dependent increase | Effect on the activity of ABCG2 in flux assays (ABCG2): inhibited the activity of ABCG2 | Uptake of SN-38 in the presence vs absence of SCO-101, all seeded cell densities (BCRP [3]; 25 μM SCO-101, HT29 parental): increased uptake | Uptake of SN-38 relative to blank HBSS transport buffer control (BCRP [3]; 25 μM test compound, HT29 parental, ANOVA α=0.05): significantly increased | EC50 (BCRP [3]; HT29 parental cell monolayers, read-out: Estimated EC50-value for increase in uptake of SN-38): 9.1 µM | Uptake of SN-38 with increasing concentrations of SCO-101 (BCRP [3]; SCO-101 100 to 0.5 μM, HT29 parental): concentration-dependent increase
SMILES: O=C(Nc1cc(C(F)(F)F)cc(C(F)(F)F)c1)Nc1ccc(Br)cc1-c1nnn[nH]1 [SCO-101]
Tolerability of the combined treatment ([1]; SCO-101 in combination with FOLFIRI, metastatic colorectal cancer patients): well tolerated | Toxicity profile (adverse events) ([1]; patients treated with SCO-101 and 90 mg irinotecan/m2 (50% FOLFIRI)): only grade 1 and 2 adverse events
